Assay results published in patent publication US20230146455A1, “TREATMENT OF INFLAMMATORY DISEASES WITH PEPTIDES AND PHARMACEUTICAL COMPOSITIONS” (Yuyu Pharma, Inc., priority 2020, published 2023).
Values joined by “and” are separate entries in the source; they are usually repeats but may differ in a detail not shown here. Identical values can stand only once. Where a SMILES comes first, the peptide text is derived from it. [ ]: non-standard residue; d: D form. Hyp = O=C(O)[C@@H]1C[C@@H](O)CN1

System: TIMP-1
Experiment: Example 9 Luminex, LPS hPBMCs: TIMP-1
Format: cell-based, human
Procedure: Treatment Human PBMCs were pretreated with YY-101, YDE-011 and YDE-043 or reference compound; Xiidra® at various concentration (ranging from 1 nM to 100 uM) for 2 h before stimulation. An equal volume of 0.5% DMSO was used as a vehicle control. Then, the cells were treated with LPS at 5 ug/ml. The supernatants from treated cells were harvested at 24 h and placed in a 96 well for Luminex cytokine & chemokine profiling using a Luminex 200 multiplex assay (Luminex; R&D system, USA).
The main study arm with triplicate wells per group in a 24-well plate: • 1. Blank • 2. PBMC: 0.5% DMSO • 3. PBMC+LPS (5 ug/ml) • 4. PBMC+YY-101 100 uM • 5. PBMC+YY-101 10 uM • 6. PBMC+YY-101 1 uM • 7. PBMC+YY-101 0.1 uM • 8. PBMC+YY-101 0.01 uM • 9. PBMC+LPS (5 ug/ml)+Xiidra®100 uM • 10. PBMC+LPS (5 ug/ml)+Xiidra® 10 uM • 11. PBMC+LPS (5 ug/ml)+Xiidra® 1 uM • 12. PBMC+LPS (5 ug/ml)+Xiidra®0.1 uM • 13. PBMC+LPS (5 ug/ml)+Xiidra®0.01 uM • 14. PBMC+LPS (5 ug/ml)+Xiidra®0.001 uM • 15. PBMC+LPS (5 ug/ml)+YY-101 100 uM • 16. PBMC+LPS (5 ug/ml)+YY-101 10 uM • 17. PBMC+LPS (5 ug/ml)+YY-101 1 uM • 18. PBMC+LPS (5 ug/ml)+YY-101 0.1 uM • 19. PBMC+LPS (5 ug/ml)+YY-101 0.01 uM • 20. PBMC+LPS (5 ug/ml)+YY-101 0.001 uM • 21. PBMC+LPS (5 ug/ml)+YDE-011 100 uM • 22. PBMC+LPS (5 ug/ml)+YDE-011 10 uM • 23. PBMC+LPS (5 ug/ml)+YDE-011 1 uM • 24. PBMC+LPS (5 ug/ml)+YDE-011 0.1 uM • 25. PBMC+LPS (5 ug/ml)+YDE-011 0.01 uM • 26. PBMC+LPS (5 ug/ml)+YDE-011 0.001 uM • 27. PBMC+LPS (5 ug/ml)+YDE-043 100 uM • 28. PBMC+LPS (5 ug/ml)+YDE-043 10 uM • 29. PBMC+LPS (5 ug/ml)+YDE-043 1 uM • 30. PBMC+LPS (5 ug/ml)+YDE-043 0.1 uM • 31. PBMC+LPS (5 ug/ml)+YDE-043 0.01 uM • 32. PBMC+LPS (5 ug/ml)+YDE-043 0.001 uM
Multiplex assay was used to measure 30 cytokines and chemokines. The 1:2, 1:10 and 1:200 diluted cell supernatant and serial dilution of the standard were dispensed into a 96 well plate at 50 ul/well. Then, the pre-mixed cocktail of antibody-coated magnetic beads was dispensed at 50 ul/well and incubated at room temperature for 2 h in a horizontal orbital microplate shaker at 800±500 rpm. The beads were washed using a magnetic device to prevent loss. The biotin-antibody was dispensed in 50 ul of each well and incubated at room temperature for 1 h in a shaker at 800±500 rpm. After washing, streptavidin-PE was added at 50 ul/well and incubated at room temperature for 30 min in a shaker under the same conditions. Finally, after washing, wash buffer (100 ul/well) was added to the plate and incubated in a shaker for 2 min. The Luminex™ 200 setting were set according to the manufacturer's protocol. The data was calculated with a standard five-parameter logistic nonlinear regression analysis of the data (xPonent software 4.2, USA). The levels of cytokine/chemokine are normalized to the live cell counts (1×10^5 cells/mL) and presented as concentrations per mL (pg/mL or ng/mL).

[1] = PBMC + LPS(5 ug/ml), test article 0.1 uM, Mean
[2] = PBMC + LPS(5 ug/ml), test article 0.1 uM, single replicates
[3] = PBMC + LPS(5 ug/ml), test article 1 uM, Mean
[4] = PBMC + LPS(5 ug/ml), test article 1 uM, single replicates
[5] = PBMC + LPS(5 ug/ml), test article 10 uM, Mean
[6] = PBMC + LPS(5 ug/ml), test article 10 uM, single replicates
[7] = PBMC + LPS(5 ug/ml), test article 100 uM, Mean
[8] = PBMC + LPS(5 ug/ml), test article 100 uM, single replicates
[9] = PBMC without LPS, test article 0.01 uM, Mean
[10] = PBMC without LPS, test article 0.01 uM, single replicates
[11] = PBMC without LPS, test article 0.1 uM, Mean
[12] = PBMC without LPS, test article 0.1 uM, single replicates
[13] = PBMC without LPS, test article 1 uM, Mean
[14] = PBMC without LPS, test article 1 uM, single replicates
[15] = PBMC without LPS, test article 10 uM, Mean
[16] = PBMC without LPS, test article 10 uM, single replicates
[17] = PBMC without LPS, test article 100 uM, Mean
[18] = PBMC without LPS, test article 100 uM, single replicates

Structure (SMILES): CC(C)C[C@H](NC(=O)CNC(=O)[C@H](CC(=O)O)NC(=O)[C@H](CCC(N)=O)NC(=O)CNC(=O)[C@@H]1C[C@@H](O)CN1)C(=O)N[C@@H](C)C(=O)NCC(=O)N1CCC[C@H]1C(=O)N[C@@H](CCCCN)C(=O)O [YY-101] (H-[Hyp]GQDGLAGPK-OH; N-terminus and C-terminus assumed)
- TIMP-1 conc/live cell (PBMC + LPS(5 ug/ml), test article 0.01 uM, single replicates): 411.9 pg/10^5 and 425.4 pg/10^5 and 453.3 pg/10^5
- TIMP-1 Concentration [1]: 2599.6 pg/mL
- TIMP-1 MFI [1]: 1542.0
- TIMP-1 conc/live cell [1]: 445.1 pg/10^5
- TIMP-1 Concentration [2]: 2721.3 pg/mL and 2498.6 pg/mL and 2578.7 pg/mL
- TIMP-1 MFI [2]: 1634.5 and 1465.5 and 1526.0
- TIMP-1 conc/live cell [2]: 438.9 pg/10^5 and 480.5 pg/10^5 and 415.9 pg/10^5
- TIMP-1 Concentration [3]: 2672.9 pg/mL
- TIMP-1 MFI [3]: 1597.7
- TIMP-1 conc/live cell [3]: 410.8 pg/10^5
- TIMP-1 Concentration [4]: 2614.9 pg/mL and 2656.4 pg/mL and 2747.5 pg/mL
- TIMP-1 MFI [4]: 1553.5 and 1585.0 and 1654.5
- TIMP-1 conc/live cell [4]: 415.1 pg/10^5 and 374.1 pg/10^5 and 443.2 pg/10^5
- TIMP-1 Concentration [5]: 2693.7 pg/mL
- TIMP-1 MFI [5]: 1613.7
- TIMP-1 conc/live cell [5]: 409.5 pg/10^5
- TIMP-1 Concentration [6]: 2741.7 pg/mL and 2801.1 pg/mL and 2538.4 pg/mL
- TIMP-1 MFI [6]: 1650.0 and 1695.5 and 1495.5
- TIMP-1 conc/live cell [6]: 456.9 pg/10^5 and 437.7 pg/10^5 and 334.0 pg/10^5
- TIMP-1 Concentration [7]: 3324.7 pg/mL
- TIMP-1 MFI [7]: 2100.3
- TIMP-1 conc/live cell [7]: 574.3 pg/10^5
- TIMP-1 Concentration [8]: 3425.7 pg/mL and 3369.3 pg/mL and 3179.1 pg/mL
- TIMP-1 MFI [8]: 2179.0 and 2135.0 and 1987.0
- TIMP-1 conc/live cell [8]: 543.8 pg/10^5 and 543.4 pg/10^5 and 635.8 pg/10^5
- TIMP-1 Concentration [9]: 5306.9 pg/mL
- TIMP-1 MFI [9]: 3666.0
- TIMP-1 conc/live cell [9]: 1065.2 pg/10^5
- TIMP-1 Concentration [10]: 5042.4 pg/mL and 5571.4 pg/mL
- TIMP-1 MFI [10]: 3456.0 and 3876.0
- TIMP-1 conc/live cell [10]: 969.7 pg/10^5 and 1160.7 pg/10^5
- TIMP-1 Concentration [11]: 4907.8 pg/mL
- TIMP-1 MFI [11]: 3349.3
- TIMP-1 conc/live cell [11]: 971.6 pg/10^5
- TIMP-1 Concentration [12]: 4573.6 pg/mL and 5242.0 pg/mL
- TIMP-1 MFI [12]: 3084.0 and 3614.5
- TIMP-1 conc/live cell [12]: 1039.5 pg/10^5 and 903.8 pg/10^5
- TIMP-1 Concentration [13]: 5121.4 pg/mL
- TIMP-1 MFI [13]: 3518.8
- TIMP-1 conc/live cell [13]: 931.2 pg/10^5
- TIMP-1 Concentration [14]: 5155.8 pg/mL and 5087.1 pg/mL
- TIMP-1 MFI [14]: 3546.0 and 3491.5
- TIMP-1 conc/live cell [14]: 937.4 pg/10^5 and 924.9 pg/10^5
- TIMP-1 Concentration [15]: 6576.7 pg/mL
- TIMP-1 MFI [15]: 4666.8
- TIMP-1 conc/live cell [15]: 1047.2 pg/10^5
- TIMP-1 Concentration [16]: 8049.3 pg/mL and 5104.1 pg/mL
- TIMP-1 MFI [16]: 5828.5 and 3505.0
- TIMP-1 conc/live cell [16]: 1257.7 pg/10^5 and 836.7 pg/10^5
- TIMP-1 Concentration [17]: 6554.3 pg/mL
- TIMP-1 MFI [17]: 4654.3
- TIMP-1 conc/live cell [17]: 982.4 pg/10^5
- TIMP-1 Concentration [18]: 6886.9 pg/mL and 6221.7 pg/mL
- TIMP-1 MFI [18]: 4917.0 and 4391.5
- TIMP-1 conc/live cell [18]: 1076.1 pg/10^5 and 888.8 pg/10^5
